Experimental data taken from patent US10457710B2, “Antimicrobial peptides, their variants and uses” (priority 2015, dated 2019).
Where a SMILES comes first, the peptide text is derived from it. [ ]: non-standard residue; d: D form.

Tests used:
Format in all cases: cell-based
[1] = tested on: clinical strains of E. cloacae; test: MIC, microdilution, clinical strains; settings: 0.02% BSA, 0.2% acetic acid
How it was run: (§1)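 Broth microdilution with inocula adjusted to 5.0×10^5 cfu/ml; peptides tested at 0.125 to 128 μg/ml and incubated at 37° C for 20 to 24 hours. Bacteria were grown in Mueller Hinton broth, yeasts in potato dextrose broth. MIC was the lowest concentration showing no visible growth.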

[2] = tested on: clinical strains of Serratia marcescens; test: MIC, microdilution, clinical strains; settings: 0.02% BSA, 0.2% acetic acid
How it was run: as §1

[3] = tested on: clinical strains of Proteus mirabilis; test: MIC, microdilution, clinical strains; settings: 0.02% BSA, 0.2% acetic acid
How it was run: as §1

[4] = tested on: clinical strains of K. pneumoniae; test: MIC, microdilution, clinical strains; settings: 0.02% BSA, 0.2% acetic acid
How it was run: as §1

[5] = tested on: clinical strains of S. pneumoniae; test: MIC, microdilution, clinical strains; settings: 0.02% BSA, 0.2% acetic acid
How it was run: as §1

[6] = tested on: clinical strains of P. aeruginosa; test: MIC, microdilution, clinical strains; settings: 0.02% BSA, 0.2% acetic acid
How it was run: as §1

[7] = tested on: clinical strains of E. coli; test: MIC, microdilution, clinical strains; settings: microdilution, Muller Hinton broth-cation adjusted, 0.02% BSA, 0.2% acetic acid
How it was run: as §1

[8] = tested on: clinical strains of S. aureus; test: MIC, microdilution, clinical strains; settings: 0.02% BSA, 0.2% acetic acid
How it was run: as §1

C. parapsilosis = test: MIC, clinical yeast strains
How it was run: (§2)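 Visual growth inhibition defined the MIC in a microdilution assay where fungal strains were cultured in potato dextrose broth instead of MH broth. Cell density was set to 5.0×10^5 cfu/ml, and incubation lasted 20–24 h at 37° C across a 0.125–128 μg/ml series.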

C. glabrata = test: MIC, clinical yeast strains
How it was run: as §2

Candida albicans = test: MIC, clinical yeast strains
How it was run: as §2

C. quillermondiae = test: MIC, clinical yeast strains; set-up: Minimum inhibitory concentration: unit: μg/ml
How it was run: as §2

[9] = Enterobacter cloacae strain 1, Muller Hinton broth-cation adjusted
[10] = Enterobacter cloacae strain 2, Muller Hinton broth-cation adjusted
[11] = Enterobacter cloacae strain 3, Muller Hinton broth-cation adjusted
[12] = Enterobacter cloacae strain 4, Muller Hinton broth-cation adjusted
[13] = Enterobacter cloacae strain 5, Muller Hinton broth-cation adjusted
[14] = Serratia marcescens strain 1, Muller Hinton broth-cation adjusted
[15] = Serratia marcescens strain 2, Muller Hinton broth-cation adjusted
[16] = Serratia marcescens strain 3, Muller Hinton broth-cation adjusted
[17] = Serratia marcescens strain 4, Muller Hinton broth-cation adjusted
[18] = Serratia marcescens strain 5, Muller Hinton broth-cation adjusted
[19] = Proteus mirabilis strain 1, Muller Hinton broth-cation adjusted
[20] = Proteus mirabilis strain 2, Muller Hinton broth-cation adjusted
[21] = Proteus mirabilis strain 3, Muller Hinton broth-cation adjusted
[22] = Proteus mirabilis strain 4, Muller Hinton broth-cation adjusted
[23] = Proteus mirabilis strain 5, Muller Hinton broth-cation adjusted
[24] = Klebsiella pneumoniae strain 1, Muller Hinton broth-cation adjusted
[25] = Klebsiella pneumoniae strain 2, Muller Hinton broth-cation adjusted
[26] = Klebsiella pneumoniae strain 3, Muller Hinton broth-cation adjusted
[27] = Klebsiella pneumoniae strain 4, Muller Hinton broth-cation adjusted
[28] = Klebsiella pneumoniae strain 5, Muller Hinton broth-cation adjusted
[29] = Streptococcus pneumoniae strain 1, Muller Hinton broth-cation adjusted
[30] = Streptococcus pneumoniae strain 2, Muller Hinton broth-cation adjusted
[31] = Streptococcus pneumoniae strain 3, Muller Hinton broth-cation adjusted
[32] = Streptococcus pneumoniae strain 4, Muller Hinton broth-cation adjusted
[33] = Streptococcus pneumoniae strain 5, Muller Hinton broth-cation adjusted
[34] = Pseudomonas aeruginosa strain 1, Muller Hinton broth-cation adjusted
[35] = Pseudomonas aeruginosa strain 2, Muller Hinton broth-cation adjusted
[36] = Pseudomonas aeruginosa strain 3, Muller Hinton broth-cation adjusted
[37] = Pseudomonas aeruginosa strain 4, Muller Hinton broth-cation adjusted
[38] = Pseudomonas aeruginosa strain 5, Muller Hinton broth-cation adjusted
[39] = Staphylococcus aureus strain 1, Muller Hinton broth-cation adjusted
[40] = Staphylococcus aureus strain 2, Muller Hinton broth-cation adjusted
[41] = Staphylococcus aureus strain 3, Muller Hinton broth-cation adjusted
[42] = Staphylococcus aureus strain 4, Muller Hinton broth-cation adjusted
[43] = Staphylococcus aureus strain 5, Muller Hinton broth-cation adjusted
[44] = clinical yeast strain 1, D-form peptide, concentrations tested 0.125 to 128 μg/ml
[45] = clinical yeast strain 2, D-form peptide, concentrations tested 0.125 to 128 μg/ml
[46] = clinical yeast strain 3, D-form peptide, concentrations tested 0.125 to 128 μg/ml
[47] = clinical yeast strain 4, D-form peptide, concentrations tested 0.125 to 128 μg/ml

Compound: CC(C)C[C@@H](NC(=O)[C@@H](CCCCN)NC(=O)[C@@H](Cc1c[nH]c2ccccc12)NC(=O)[C@@H](CCCCN)NC(=O)[C@@H](C)NC(=O)[C@@H](Cc1c[nH]cn1)NC(=O)[C@@H](CC(C)C)NC(=O)[C@@H](CCCNC(=N)N)NC(=O)[C@@H](Cc1c[nH]c2ccccc12)NC(=O)[C@H](N)Cc1c[nH]c2ccccc12)C(=O)N[C@H](Cc1c[nH]c2ccccc12)C(=O)O [Chain109D] (H-[dW][dW][dR][dL][dH][dA][dK][dW][dK][dL][dW]-OH)
- Minimum inhibitory concentration [1, 9]: 4
- Minimum inhibitory concentration [1, 10]: 8
- Minimum inhibitory concentration [1, 11]: 8
- Minimum inhibitory concentration [1, 12]: 8
- Minimum inhibitory concentration [1, 13]: 4
- Minimum inhibitory concentration [2, 14]: >128
- Minimum inhibitory concentration [2, 15]: >128
- Minimum inhibitory concentration [2, 16]: >128
- Minimum inhibitory concentration [2, 17]: >128
- Minimum inhibitory concentration [2, 18]: 64
- Minimum inhibitory concentration [3, 19]: >128
- Minimum inhibitory concentration [3, 20]: 64
- Minimum inhibitory concentration [3, 21]: 64
- Minimum inhibitory concentration [3, 22]: >128
- Minimum inhibitory concentration [3, 23]: >128
- Minimum inhibitory concentration [4, 24]: 16
- Minimum inhibitory concentration [4, 25]: 8
- Minimum inhibitory concentration [4, 26]: 8
- Minimum inhibitory concentration [4, 27]: 16
- Minimum inhibitory concentration [4, 28]: 8
- Minimum inhibitory concentration [5, 29]: 16
- Minimum inhibitory concentration [5, 30]: 8
- Minimum inhibitory concentration [5, 31]: 2
- Minimum inhibitory concentration [5, 32]: 8
- Minimum inhibitory concentration [5, 33]: 8
- Minimum inhibitory concentration [6, 34]: 16
- Minimum inhibitory concentration [6, 35]: 16
- Minimum inhibitory concentration [6, 36]: 16
- Minimum inhibitory concentration [6, 37]: 16
- Minimum inhibitory concentration [6, 38]: 8
- Minimum inhibitory concentration ([7]; Escherichia coli strain 1): 16
- Minimum inhibitory concentration ([7]; Escherichia coli strain 2): 4
- Minimum inhibitory concentration ([7]; Escherichia coli strain 3): 4
- Minimum inhibitory concentration ([7]; Escherichia coli strain 4): 4
- Minimum inhibitory concentration ([7]; Escherichia coli strain 5): 4
- Minimum inhibitory concentration [8, 39]: 2
- Minimum inhibitory concentration [8, 40]: 4
- Minimum inhibitory concentration [8, 41]: 2
- Minimum inhibitory concentration [8, 42]: 2
- Minimum inhibitory concentration [8, 43]: 2
- Minimum inhibitory concentration, C. parapsilosis strain 1 (C. parapsilosis; [44]): 128
- Minimum inhibitory concentration, C. parapsilosis strain 2 (C. parapsilosis; [45]): 128
- Minimum inhibitory concentration, C. parapsilosis strain 3 (C. parapsilosis; [46]): 128
- Minimum inhibitory concentration, C. parapsilosis strain 4 (C. parapsilosis; [47]): 8
- Minimum inhibitory concentration, C. glabrata strain 1 (C. glabrata; [44]): 128
- Minimum inhibitory concentration, C. glabrata strain 2 (C. glabrata; [45]): 128
- Minimum inhibitory concentration, C. glabrata strain 3 (C. glabrata; [46]): 16
- Minimum inhibitory concentration, C. glabrata strain 4 (C. glabrata; [47]): 64
- Minimum inhibitory concentration, Candida albicans strain 1 (Candida albicans; [44]): 128
- Minimum inhibitory concentration, Candida albicans strain 2 (Candida albicans; [45]): 128
- Minimum inhibitory concentration, Candida albicans strain 3 (Candida albicans; [46]): 128
- Minimum inhibitory concentration, Candida albicans strain 4 (Candida albicans; [47]): 128
- Minimum inhibitory concentration, Candida albicans strain 5 (Candida albicans; clinical yeast strain 5, D-form peptide, concentrations tested 0.125 to 128 μg/ml): 128
- Minimum inhibitory concentration, C. quillermondiae strain 1 (C. quillermondiae; [44]): 128

Compound: CC(C)C[C@@H](NC(=O)[C@@H](CCCCN)NC(=O)[C@@H](CCCCN)NC(=O)[C@@H](Cc1ccccc1)NC(=O)[C@@H](CC(C)C)NC(=O)[C@@H](Cc1c[nH]c2ccccc12)NC(=O)[C@@H](CCCNC(=N)N)NC(=O)[C@@H](Cc1c[nH]c2ccccc12)NC(=O)[C@@H](CCCCN)NC(=O)[C@@H](CCCNC(=N)N)NC(=O)[C@H](N)CCCCN)C(=O)O [Chain310D] (H-[dK][dR][dK][dW][dR][dW][dL][dF][dK][dK][dL]-OH)
- Minimum inhibitory concentration [1, 9]: 128
- Minimum inhibitory concentration [1, 10]: 64
- Minimum inhibitory concentration [1, 11]: 16
- Minimum inhibitory concentration [1, 12]: 8
- Minimum inhibitory concentration [1, 13]: 16
- Minimum inhibitory concentration [2, 14]: >128
- Minimum inhibitory concentration [2, 15]: >128
- Minimum inhibitory concentration [2, 16]: >128
- Minimum inhibitory concentration [2, 17]: >128
- Minimum inhibitory concentration [2, 18]: >128
- Minimum inhibitory concentration [3, 19]: >128
- Minimum inhibitory concentration [3, 20]: >128
- Minimum inhibitory concentration [3, 21]: >128
- Minimum inhibitory concentration [3, 22]: >128
- Minimum inhibitory concentration [3, 23]: >128
- Minimum inhibitory concentration [4, 24]: 64
- Minimum inhibitory concentration [4, 25]: 64
- Minimum inhibitory concentration [4, 26]: 128
- Minimum inhibitory concentration [4, 27]: 64
- Minimum inhibitory concentration [4, 28]: 32
- Minimum inhibitory concentration [5, 29]: 128
- Minimum inhibitory concentration [5, 30]: 128
- Minimum inhibitory concentration [5, 31]: 128
- Minimum inhibitory concentration [5, 32]: 128
- Minimum inhibitory concentration [5, 33]: 64
- Minimum inhibitory concentration [6, 34]: 8
- Minimum inhibitory concentration [6, 35]: 16
- Minimum inhibitory concentration [6, 36]: 16
- Minimum inhibitory concentration [6, 37]: 8
- Minimum inhibitory concentration [6, 38]: 4
- Minimum inhibitory concentration ([7]; Escherichia coli strain 1): 4
- Minimum inhibitory concentration ([7]; Escherichia coli strain 2): 32
- Minimum inhibitory concentration ([7]; Escherichia coli strain 3): 16
- Minimum inhibitory concentration ([7]; Escherichia coli strain 4): 16
- Minimum inhibitory concentration ([7]; Escherichia coli strain 5): 16
- Minimum inhibitory concentration [8, 39]: 8
- Minimum inhibitory concentration [8, 40]: 16
- Minimum inhibitory concentration [8, 41]: 8
- Minimum inhibitory concentration [8, 42]: 8
- Minimum inhibitory concentration [8, 43]: 4
- Minimum inhibitory concentration (C. parapsilosis; C. parapsilosis clinical yeast strain 1): 64
- Minimum inhibitory concentration (C. parapsilosis; C. parapsilosis clinical yeast strain 2): 64
- Minimum inhibitory concentration (C. parapsilosis; C. parapsilosis clinical yeast strain 3): 64
- Minimum inhibitory concentration (C. parapsilosis; C. parapsilosis clinical yeast strain 4): 16
- Minimum inhibitory concentration (C. glabrata; C. glabrata clinical yeast strain 1): 16
- Minimum inhibitory concentration (C. glabrata; C. glabrata clinical yeast strain 2): 16
- Minimum inhibitory concentration (C. glabrata; C. glabrata clinical yeast strain 3): 128
- Minimum inhibitory concentration (C. glabrata; C. glabrata clinical yeast strain 4): 128
- Minimum inhibitory concentration (Candida albicans; Candida albicans clinical yeast strain 1): 16
- Minimum inhibitory concentration (Candida albicans; Candida albicans clinical yeast strain 2): 16
- Minimum inhibitory concentration (Candida albicans; Candida albicans clinical yeast strain 3): 16
- Minimum inhibitory concentration (Candida albicans; Candida albicans clinical yeast strain 4): 16
- Minimum inhibitory concentration (Candida albicans; Candida albicans clinical yeast strain 5): 16
- Minimum inhibitory concentration (C. quillermondiae; C. quillermondiae clinical yeast strain 1): 8
